Assay results reported in patent publication EP4635945A1, “CRYSTAL FORM OF PROXIMOD, PREPARATION METHOD THEREFOR, AND USE THEREOF” (Jiankuan (Suzhou) Biotechnology Co., Ltd, priority 2022, dated 2024).
Entries after “also recorded” stand apart in the source; their conditions may differ.

What was measured:
Format in all cases: physicochemical
[1] = Equilibrium solubility in organic solvents at room temperature (HPLC, XRPD of solids); conditions: organic solvent or mixture, thermodynamic from solid, 24 hours of equilibrium
Description: (§1) After 24 hours of equilibrium, the saturated solutions were obtained by filtration. The contents of the samples in the saturated solutions were determined by high-performance liquid chromatography (HPLC) (the filtered solutions were diluted as needed), and the crystal forms of the solids before and after the experiment were characterized by XRPD to check whether phase changes occurred.

[2] = Intrinsic dissolution of tableted crystal forms; conditions: hydrochloride
[3] = Fluidity: angle of repose, bulk and tap density, Hausner ratio; conditions: hydrochloride
Description: This experiment was performed by using a tap density tester according to the fixed-volume method. The specific operations are as follows: The weighed powder, with a volume of 50 mL, was loaded into a graduated cylinder, and the graduated cylinder was secured onto a support. The graduated cylinder was set to be vibrated at 55 ± 5 vibrations per minute for 6-8 minutes. The volume change of the powder was measured in a measuring cup. The ratio of the weight of the powder to the volume (50 mL) before tapping is the bulk density of the powder, and the ratio of the weight of the powder to the volume after tapping is the tapped density of the powder.
The Hausner ratio and the compression degree were converted in the following methods. Hausner ratio = tap density/bulk density [formula] Compression degree = (tapdensity−bulkdensity)/tap density [formula]
This experiment was performed by a pouring method, and the angles of repose of the drug substances of the two crystal forms were measured in combination with a residual cone method to analyze their fluidities. The specific operations are as follows: The powder was poured onto the center of a disk with a specific diameter, and when the material on the slope of the powder pile began to flow freely out along the periphery of the disk, the pouring of the powder was stopped. The height (h) of the cone was measured, and the angle of repose was calculated in combination with the diameter (2r) of the disk, that is, tanQ = h/r.

[4] = Microscopic morphology and particle size; conditions: microscopy; hydrochloride
Description: (§2) In the examples of the present application, the instrument used for the X-ray powder diffraction test is the D2 Phaser produced by Bruker. The instrument used for the differential scanning calorimetry test is the differential scanning calorimeter DSC 250 produced by TA Instruments. The instrument used for the thermogravimetric analysis is the thermogravimetric analyzer TGA 55 produced by TA Instruments. The instrument used for the FT-IR test is the Fourier infrared spectrometer ID1-summit produced by Thermo. The instrument used for the dynamic vapor sorption test is the DVS Intrinsic produced by Surface Measurement Systems (SMS). The instrument used for the microscopy is the microscope NJF-120A produced by Suzhou Nanguang Electronic Technology Co., Ltd.

[5] = Mechanical stability: grinding in agate mortar, XRPD; conditions: 50 mg ground with an agate mortar for 5 minutes; hydrochloride
Description: The samples before and after ground were detected by XRPD.

[6] = Hygroscopicity by dynamic vapor sorption (DVS)
Description: as §2

[7] = Compressibility: tableting, hardness and tensile strength; conditions: die with a diameter of 6 mm
Description: In this experiment, a die with a diameter of 6 mm was used. The drug substance and the drug substance + excipient were tableted under the same pressure, respectively. After the elasticity of the prepared tablets was restored, the radial crushing force F, diameter D, and thickness L of the tablets were measured. The tensile strength of the tablets was calculated according to the following formula: Ts = 2F/IIDL.

[8] = Adhesiveness: PE bag adhesive rate; conditions: flipped at 5 rpm, 10 minutes in each direction; hydrochloride
Description: The bags were sealed, flipped at a rotational speed of 5 rpm for 10 minutes, and continued to be flipped in a different flipping direction at a fixed rotational speed for 10 minutes. The materials were poured out of the bags, and the materials remaining in the bags were accurately weighed to calculate the adhesive rate.
The adhesive rate was calculated according to the following formula: Adhesive rate = (initialmaterialweight-remainingmaterialweight)/contact surface area. [formula]

[9] = Dynamic solubility in biorelevant media and buffers at 37 °C (HPLC, XRPD of solids); conditions: for solubility at 1 h / solubility at 4 h / solubility at 24 h / solubility at 2 h: thermodynamic from solid
Description: as §1, with “1 hour/2 hours/4 hours/24 hours,” for “24 hours of equilibrium,”, “actual concentrations” for “contents”

[10] = FaSSIF (pH of 8.0), 1 hour, hydrochloride
[11] = FaSSIF (pH of 8.0), 2 hours, hydrochloride
[12] = pH = 4.0 acetic acid-sodium acetate buffer, 2 hours, hydrochloride
[13] = pH = 6.8 phosphate buffer, 4 hours
[14] = pH = 6.8 phosphate buffer, 24 hours

With CCCc1nc(-c2ccc(-c3ccc(CCC(N)(CO)CO)cc3)cc2)co1.Cl [Crystal form A, 2-amino-2-{2-(4'-(2-propyloxazol-4-yl)-[1,1'-biphenyl]-4-yl)ethyl}-1,3-propanediol hydrochloride] the solubility at 24 h ([1]; acetone) was 43 µg/mL, the solubility at 24 h ([1]; ethanol) was 9990 µg/mL and the solubility at 24 h ([1]; ethyl acetate) was 11 µg/mL. The Dissolution amount ([2]; Medium Water, 5 min) was 0.0005 mg/mL, the Dissolution amount ([2]; Medium Water, 10 min) was 0.0010 mg/mL and the Dissolution amount ([2]; Medium Water, 30 min) was 0.0011 mg/mL. For the same compound, the Dissolution amount ([2]; Medium Water, 45 min) was 0.0003 mg/mL, the Dissolution amount ([2]; Medium Water, 60 min) was 0.0010 mg/mL and the Dissolution amount ([2]; Medium Water, 90 min) was 0.0012 mg/mL. The Dissolution amount ([2]; Medium pH = 4.0, flow rate 4 mL/minute, 5 min) was 0.0346 mg/mL, the Dissolution amount ([2]; Medium pH = 4.0, flow rate 4 mL/minute, 10 min) was 0.0462 mg/mL and the Dissolution amount ([2]; Medium pH = 4.0, flow rate 4 mL/minute, 30 min) was 0.0481 mg/mL. The Dissolution amount ([2]; Medium pH = 4.0, flow rate 4 mL/minute, 45 min) was 0.0477 mg/mL, the Dissolution amount ([2]; Medium pH = 4.0, flow rate 4 mL/minute, 60 min) was 0.0487 mg/mL and the Dissolution amount ([2]; Medium pH = 4.0, flow rate 4 mL/minute, 90 min) was 0.0479 mg/mL. It also gave a Compression degree ([3]; (tap density − bulk density)/tap density) of 33.0% 33.0%, a Bulk density ([3]; fixed-volume method, 50 mL) of 0.34 g/mL and a Tap density ([3]; fixed-volume method, after tapping) of 0.50 g/mL. The Angle of repose ([3]; pouring method with residual cone method) was 56.25 °, the Hausner ratio ([3]; tap density/bulk density) was 1.5 and the Length/short diameter ratio [4] was 1-3. The Microscopic morphology [4] was “flaky”, the “Crystal form after ground (XRPD)” value [5] was “remains unchanged” and the “Weight gain by water absorption (DVS)” value ([6]; 24.4 °C/90% RH) was 0.06%. For the same compound, the Hygroscopicity description ([6]; DVS, 90% RH, hydrochloride) was “no or almost no hygroscopicity; also recorded: slightly hygroscopic”, the “Weight gain by water absorption (DVS)” value ([6]; vapor sorption at 25 °C/90% RH) was 0.26% and the “Tensile strength Ts” value ([7]; Ts = 2F/IIDL, hydrochloride) was 0.17. For the same compound, the Hardness ([7]; same pressure, hydrochloride) was 5 N, the Experimental phenomena ([7]; tableting) was “Severe punch sticking” and the “PE bag adhesive rate” value [8] was 0.0007 g/cm^2. The “Crystal form of the solid” value [9, 10] was “A + Free alkali”, the Solubility [9, 10] was 22 µg/mL and the “Crystal form of the solid” value [9, 11] was “A + Free alkali”. The Solubility [9, 11] was 24 µg/mL, the “Crystal form of the solid” value ([9]; FaSSIF (pH of 8.0), 4 hours) was “Free alkali” and the Solubility ([9]; FaSSIF (pH of 8.0), 4 hours, hydrochloride) was 18 µg/mL. The “Crystal form of the solid” value ([9]; FaSSIF (pH of 8.0), 24 hours) was “Free alkali”, the Solubility ([9]; FaSSIF (pH of 8.0), 24 hours, hydrochloride) was 16 µg/mL and the Solubility ([9]; FeSSIF (pH of 5.0), 4 hours, hydrochloride) was 340 µg/mL. The “Crystal form of the solid” value ([9]; FeSSIF (pH of 5.0), 24 hours) was “no crystal form change”, the “Crystal form of the solid” value ([9]; SGF (pH of 1.0), 1 hour) was “A + F” and the “Crystal form of the solid” value ([9]; SGF (pH of 1.0), 2 hours) was “A + F”. The “Crystal form of the solid” value ([9]; SGF (pH of 1.0), 4 hours) was “A + F”, the “Crystal form of the solid” value ([9]; SGF (pH of 1.0), 24 hours) was “A + F” and the “Crystal form of the solid” value ([9]; Water, 1 hour, hydrochloride) was “A + F”. For the same compound, the “Crystal form of the solid” value ([9]; Water, 2 hours, hydrochloride) was “A + F”, the “Crystal form of the solid” value ([9]; Water, 4 hours, hydrochloride) was “A + F” and the Solubility ([9]; Water, 4 hours, hydrochloride) was 990 µg/mL. For the same compound, the “Crystal form of the solid” value ([9]; Water, 24 hours, hydrochloride) was “A + F”, the solubility at 1 h ([9]; acetic acid-sodium acetate buffer, pH 4, aqueous buffer, pH = 4.0 acetic acid-sodium acetate buffer, 1 hour) was 1690 µg/mL and the solubility at 4 h ([9]; acetic acid-sodium acetate buffer, pH 4, aqueous buffer, pH = 4.0 acetic acid-sodium acetate buffer, 4 hours) was 1360 µg/mL. The solubility at 24 h ([9]; acetic acid-sodium acetate buffer, pH 4, aqueous buffer, pH = 4.0 acetic acid-sodium acetate buffer, 24 hours) was 4110 µg/mL, the solubility at 1 h ([9]; fed state simulated intestinal fluid (FeSSIF), pH 5, fessif, FeSSIF (pH of 5.0), 1 hour) was 1930 µg/mL and the solubility at 2 h ([9]; fed state simulated intestinal fluid (FeSSIF), pH 5, fessif, FeSSIF (pH of 5.0), 2 hours) was 2110 µg/mL. The solubility at 24 h ([9]; fed state simulated intestinal fluid (FeSSIF), pH 5, fessif, FeSSIF (pH of 5.0), 24 hours) was 3720 µg/mL, the solubility at 1 h ([9]; hydrochloric acid aqueous solution, pH 1, simulated gastric fluid, pH = 1.0 hydrochloric acid aqueous solution, 1 hour) was 280 µg/mL and the solubility at 2 h ([9]; hydrochloric acid aqueous solution, pH 1, simulated gastric fluid, pH = 1.0 hydrochloric acid aqueous solution, 2 hours) was 280 µg/mL. The solubility at 4 h ([9]; hydrochloric acid aqueous solution, pH 1, simulated gastric fluid, pH = 1.0 hydrochloric acid aqueous solution, 4 hours) was 330 µg/mL, the solubility at 24 h ([9]; hydrochloric acid aqueous solution, pH 1, simulated gastric fluid, pH = 1.0 hydrochloric acid aqueous solution, 24 hours) was 400 µg/mL and the “Crystal form of the solid” value ([9]; pH = 1.0 hydrochloric acid aqueous solution, 1 hour) was “A + F”. The “Crystal form of the solid” value ([9]; pH = 1.0 hydrochloric acid aqueous solution, 2 hours) was “A + F”, the “Crystal form of the solid” value ([9]; pH = 1.0 hydrochloric acid aqueous solution, 4 hours) was “A + F” and the “Crystal form of the solid” value ([9]; pH = 1.0 hydrochloric acid aqueous solution, 24 hours) was “A + F”. The “Crystal form of the solid” value ([9]; pH = 4.0 acetic acid-sodium acetate buffer, 1 hour, hydrochloride) was “A + F”, the “Crystal form of the solid” value [9, 12] was “A + F” and the Solubility [9, 12] was 1130 µg/mL. The “Crystal form of the solid” value ([9]; pH = 4.0 acetic acid-sodium acetate buffer, 4 hours, hydrochloride) was “A + F”, the “Crystal form of the solid” value ([9]; pH = 4.0 acetic acid-sodium acetate buffer, 24 hours, hydrochloride) was “A + F” and the “Crystal form of the solid” value ([9]; pH = 6.8 phosphate buffer, 1 hour) was “Free alkali”. For the same compound, the “Crystal form of the solid” value ([9]; pH = 6.8 phosphate buffer, 2 hours) was “Free alkali”, the Solubility ([9]; pH = 6.8 phosphate buffer, 2 hours, hydrochloride) was “Not detected” and the “Crystal form of the solid” value [9, 13] was “Free alkali”. The Solubility [9, 13] was “Not detected”, the “Crystal form of the solid” value [9, 14] was “Free alkali” and the Solubility [9, 14] was “Not detected”. For the same compound, the solubility at 1 h ([9]; phosphate buffer, pH 6.8, aqueous buffer, pH = 6.8 phosphate buffer, 1 hour) was 0.16 µg/mL, the solubility at 1 h ([9]; simulated gastric fluid (SGF), pH 1, simulated gastric fluid, SGF (pH of 1.0), 1 hour) was 260 µg/mL and the solubility at 2 h ([9]; simulated gastric fluid (SGF), pH 1, simulated gastric fluid, SGF (pH of 1.0), 2 hours) was 250 µg/mL. It also gave a solubility at 4 h ([9]; simulated gastric fluid (SGF), pH 1, simulated gastric fluid, SGF (pH of 1.0), 4 hours) of 280 µg/mL, a solubility at 24 h ([9]; simulated gastric fluid (SGF), pH 1, simulated gastric fluid, SGF (pH of 1.0), 24 hours) of 460 µg/mL and a solubility at 1 h ([9]; water, 1 hour) of 2020 µg/mL. For the same compound, the solubility at 2 h ([9]; water, 2 hours) was 2570 µg/mL and the solubility at 24 h ([9]; water, 24 hours) was 3290 µg/mL.
